Experimental data: ChEMBL document CHEMBL1201862, “PubChem BioAssay data set” (2004)
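48-hour exposure; five concentrations; linearly interpolated endpoints. GI50: concentration for 50% inhibition of growth.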 Active and inactive are the calls of the source. No stated cut-off is given here; in the data, active = GI50 up to about 1.1 µM and inactive = higher.

Columns and labels:
Assay in all cases: growth of human tumour cells (NCI), 48 h
SN12C = tested on: SN12C
SK-OV-3 = tested on: SK-OV-3
SNB-19 = tested on: SNB-19
HCT-15 = tested on: HCT-15
M14 = tested on: M14
K562 = tested on: K562
HOP-62 = tested on: HOP-62
HCT-116 = tested on: HCT-116
KM12 = tested on: KM12
HL-60 = tested on: HL-60
IGROV-1 = tested on: IGROV-1
SF-268 = tested on: SF-268
NCI-H23 = tested on: NCI-H23
CAKI-1 = tested on: CAKI-1
Malme-3M = tested on: Malme-3M

| Structure (SMILES) | GI50 (SN12C) | GI50 (SK-OV-3) | GI50 (SNB-19) | GI50 (HCT-15) [µM] | GI50 (M14) | GI50 (K562) | GI50 (HOP-62) | GI50 (HCT-116) | GI50 (KM12) | GI50 (HL-60) | GI50 (IGROV-1) | GI50 (SF-268) | GI50 (NCI-H23) | GI50 (CAKI-1) | GI50 (Malme-3M) |
| --- | --- | --- | --- | --- | --- | --- | --- | --- | --- | --- | --- | --- | --- | --- | --- |
| S=c1nc(N2CCCCC2)ss1 | 17 µM (inactive) | > 100 µM (inactive) | 27.6 µM (inactive) | 21.1 | 20.2 µM (inactive) | 18.4 µM (inactive) | 26.7 µM (inactive) | 17.7 µM (inactive) | 17.2 µM (inactive) | 13.5 µM (inactive) | 25.1 µM (inactive) | 21.1 µM (inactive) | 47.5 µM (inactive) | 27.7 µM (inactive) | 19.3 µM (inactive) |
| CCCCCCCC(=O)OCC1OC(n2cc(F)c(=O)[nH]c2=O)C(N)C(O)C1O (centres undefined) | > 100 µM (inactive) | > 100 µM (inactive) | > 100 µM (inactive) | > 100 | > 100 µM (inactive) | > 100 µM (inactive) | > 100 µM (inactive) | > 100 µM (inactive) | > 100 µM (inactive) | > 100 µM (inactive) | > 100 µM (inactive) | > 100 µM (inactive) | > 100 µM (inactive) | > 100 µM (inactive) | > 100 µM (inactive) |
| CC(=O)NC1C(OCc2ccccc2)OC(COC(=O)CCCCCCCCCCNc2ccc([N+](=O)[O-])c3[nH]c4ccccc4c(=O)c23)C(O)C1OC(C)C(=O)NC(C)C(=O)NC(CCC(N)=O)C(=O)OCc1ccccc1 (centres undefined) | > 100 µM (inactive) | > 100 µM (inactive) | > 100 µM (inactive) | > 100 | > 100 µM (inactive) | > 100 µM (inactive) | > 100 µM (inactive) | > 100 µM (inactive) | > 100 µM (inactive) | > 100 µM (inactive) | > 100 µM (inactive) | > 100 µM (inactive) | > 100 µM (inactive) | > 100 µM (inactive) | – |
| Cc1c2cc[n+](C)cc2c(C)c2c1[nH]c1ccc(OC(C)(C)C)cc12 | > 100 µM (inactive) | > 100 µM (inactive) | – | > 100 | > 100 µM (inactive) | > 100 µM (inactive) | > 100 µM (inactive) | > 100 µM (inactive) | > 100 µM (inactive) | > 100 µM (inactive) | > 100 µM (inactive) | > 100 µM (inactive) | > 100 µM (inactive) | > 100 µM (inactive) | > 100 µM (inactive) |
| O=C1CCCC[C@H]1[C@H]1CCC[C@@H]([C@H]2CCCCC2=O)C1=O | > 100 µM (inactive) | > 100 µM (inactive) | > 100 µM (inactive) | > 100 | > 100 µM (inactive) | > 100 µM (inactive) | > 100 µM (inactive) | > 100 µM (inactive) | > 100 µM (inactive) | > 100 µM (inactive) | > 100 µM (inactive) | > 100 µM (inactive) | > 100 µM (inactive) | > 100 µM (inactive) | > 100 µM (inactive) |
| COc1cc(C(=C2SCCS2)c2nccc3cc(OC)c(OC)cc23)c([N+](=O)[O-])cc1OC | 48.9 µM (inactive) | 65.9 µM (inactive) | > 100 µM (inactive) | – | 89.9 µM (inactive) | 9.42 µM (inactive) | > 100 µM (inactive) | 80.4 µM (inactive) | 90.4 µM (inactive) | 10.5 µM (inactive) | > 100 µM (inactive) | 80.9 µM (inactive) | 40.8 µM (inactive) | – | 74.3 µM (inactive) |
| N#CC(C#N)=Cc1ccc(Oc2ccccc2)cc1 | 14.1 µM (inactive) | > 100 µM (inactive) | 37.3 µM (inactive) | 70.5 | 22.2 µM (inactive) | 26.7 µM (inactive) | 65.8 µM (inactive) | 20.6 µM (inactive) | 39.3 µM (inactive) | 23 µM (inactive) | 29.9 µM (inactive) | 27.9 µM (inactive) | 23.6 µM (inactive) | 43.8 µM (inactive) | 21.7 µM (inactive) |
| Cc1ccc(S(=O)(=O)CNC(=S)CCCC(=S)NCS(=O)(=O)c2ccc(C)cc2)cc1 | > 100 µM (inactive) | > 100 µM (inactive) | > 100 µM (inactive) | 53.8 | > 100 µM (inactive) | 53.6 µM (inactive) | > 100 µM (inactive) | 49 µM (inactive) | > 100 µM (inactive) | 16.1 µM (inactive) | > 100 µM (inactive) | > 100 µM (inactive) | 35.4 µM (inactive) | > 100 µM (inactive) | 50.7 µM (inactive) |
| CCN1c2ccccc2-c2c3c1cc(C)cc3c1ccccc1[n+]2CC | 0.659 µM (active) | 1.83 µM (inactive) | 0.528 µM (active) | 6.22 | 1.69 µM (inactive) | 0.323 µM (active) | 2.04 µM (inactive) | 0.644 µM (active) | 0.339 µM (active) | 1.16 µM (inactive) | 1.66 µM (inactive) | 0.522 µM (active) | 1.32 µM (inactive) | 2.26 µM (inactive) | 1.15 µM (inactive) |
| COc1cccc2c1C(=O)c1c(O)c3c(c(O)c1C2=O)CC(O)(C(C)=O)CC3OC1CC([N+](C)(C)C)C(O)C(C)O1 (centres undefined) | 50.7 µM (inactive) | > 100 µM (inactive) | > 100 µM (inactive) | > 100 | > 100 µM (inactive) | 23.1 µM (inactive) | > 100 µM (inactive) | 66.8 µM (inactive) | > 100 µM (inactive) | 24 µM (inactive) | 42.1 µM (inactive) | > 100 µM (inactive) | 72.9 µM (inactive) | > 100 µM (inactive) | > 100 µM (inactive) |
| CCCN(CCCCC(NC(C)=O)C(=O)NCc1ccccc1)C(=O)N(C)N=O (centres undefined) | > 100 µM (inactive) | > 100 µM (inactive) | > 100 µM (inactive) | > 100 | > 100 µM (inactive) | > 100 µM (inactive) | > 100 µM (inactive) | > 100 µM (inactive) | > 100 µM (inactive) | – | > 100 µM (inactive) | > 100 µM (inactive) | > 100 µM (inactive) | > 100 µM (inactive) | > 100 µM (inactive) |
| CN(C)CC1(C)CC/C(=C\c2ccccc2)C1=O (centres undefined) | > 100 µM (inactive) | – | 44.1 µM (inactive) | 63 | > 100 µM (inactive) | > 100 µM (inactive) | > 100 µM (inactive) | > 100 µM (inactive) | > 100 µM (inactive) | – | > 100 µM (inactive) | > 100 µM (inactive) | > 100 µM (inactive) | > 100 µM (inactive) | > 100 µM (inactive) |
| C/C(=N\NC(=O)CC(=O)Nc1ccc(Cl)cc1)c1cc2ccccc2oc1=O | > 100 µM (inactive) | > 100 µM (inactive) | > 100 µM (inactive) | > 100 | > 100 µM (inactive) | > 100 µM (inactive) | > 100 µM (inactive) | > 100 µM (inactive) | > 100 µM (inactive) | > 100 µM (inactive) | > 100 µM (inactive) | – | > 100 µM (inactive) | – | > 100 µM (inactive) |
| COS(=O)CCOC(=O)c1ccccc1SSc1ccccc1C(=O)OCCS(=O)OC (centres undefined) | 26.1 µM (inactive) | > 100 µM (inactive) | > 100 µM (inactive) | 23.8 | 20 µM (inactive) | 20.6 µM (inactive) | > 100 µM (inactive) | – | 27.1 µM (inactive) | – | > 100 µM (inactive) | 32.3 µM (inactive) | 20.2 µM (inactive) | 27.2 µM (inactive) | 18.6 µM (inactive) |
